Common to all, as to type: cell-based, human
Test [1] concerns MOLM13 cells. Description: MTT cell proliferation assay, MOLM13 cells. The method, then: For metabolic activity assays, here MTT-assays, cell density was 3×10^4 cells per well (96 well plate). For ROS/superoxide detection assays cell density was 1×10^5 per tube (volume 1 ml). […] The MTT or XTT assay is the most reliable for assessment of cell growth. In principal all assays are based on staining of viable cells after treatment. Cytotoxic effects in cell lines may also be assessed by [^3H] thymidine incorporation (see below). Cell proliferation was assessed by the MTT assay. […] The plates were incubated for 72 h under standard conditions. After addition of 15 μl of a 5 mg/ml MTT solution (MTT; Sigma, Germany) to each well and incubation for another 4 h, 100 μl/well of a 10% sodium dodecyl sulphate solution in 0.01 M hydrochloric acid were added and the plates were incubated overnight under the same conditions (stain development). Subsequently, the absorbance of each well at 540 nm (reference wavelength 690 nm) was recorded with an absorbance plate reader (Sunrise, Tecan, Switzerland). Blank control values (no drug, no cells) were subtracted from the sample values and the means of replicate wells for each drug dilution and the control (cells grown in absence of the drug) were used to calculate the extent of relative cell proliferation (as percentage of the control) and growth inhibition.
Background: Formazan colour is commonly taken as a measure of viable cells.

The next test has as its system MEC1 cells. Description: MTT cell proliferation assay, MEC1 cells. The method, then: For metabolic activity assays, here MTT-assays, cell density was 3×10^4 cells per well (96 well plate). For ROS/superoxide detection assays cell density was 1×10^5 per tube (volume 1 ml). For NF-κB family member activation assays nuclear cell extracts were used (9×10^6 cells/6 ml volume in 6 well plates). The MTT or XTT assay is the most reliable for assessment of cell growth. In principal all assays are based on staining of viable cells after treatment. Cytotoxic effects in cell lines may also be assessed by [^3H] thymidine incorporation (see below). Cell proliferation was assessed by the MTT assay. […] The plates were incubated for 72 h under standard conditions. After addition of 15 μl of a 5 mg/ml MTT solution (MTT; Sigma, Germany) to each well and incubation for another 4 h, 100 μl/well of a 10% sodium dodecyl sulphate solution in 0.01 M hydrochloric acid were added and the plates were incubated overnight under the same conditions (stain development). Subsequently, the absorbance of each well at 540 nm (reference wavelength 690 nm) was recorded with an absorbance plate reader (Sunrise, Tecan, Switzerland). Blank control values (no drug, no cells) were subtracted from the sample values and the means of replicate wells for each drug dilution and the control (cells grown in absence of the drug) were used to calculate the extent of relative cell proliferation (as percentage of the control) and growth inhibition.

The test system of test [2] is MOLM13 cells. Description: Intracellular ROS/superoxide detection by flow cytometry, MOLM13 cells. Conditions: 10% FCS (OU749 100 μM) and 10% HS (OU749 200 μM); sorafenib 10 nM. The method, then:
Intracellular ROS/superoxide levels were assessed by the ROS/superoxide Detection Assay Kit (ab139476, Abcam, Cambridge, UK) according to the manufacturer's protocol.
Cells were incubated with OU749 for 10 minutes prior to addition of serum or albumin (FCS or HS, both 10%, BSA or different HSA preparations as indicated), or albumin-supplemented FCS (supplementation with HSA or BSA: final albumin concentration 4-5 mg/ml). The final cell concentration was 1×10^5/ml/tube (volume 1 ml). Mean fluorescence intensities of at least 10000 events were assessed and compared.
ROS and superoxide levels were assessed by flow cytometry using the cellular ROS/superoxide Detection Assay Kit (ab139476, Abcam, Cambridge, UK) according to the manufacturer's protocol. […] Mean fluorescence intensities of at least 10000 events were assessed and compared.
In general terms: Flow cytometry measures light scatter and fluorescence of single cells or particles in a stream.

Where [3] appears, read: 10% HS, DMSO control, 72 h treatment, read-out: IC50, proliferation of MOLM13 cells in HS, DMSO control.
The mark [4] stands for this setting: 10% HS, plus 200 μM OU749, 72 h treatment, read-out: IC50, proliferation of MOLM13 cells in HS after addition of OU749.
Setting [5] is: 10% fetal calf serum, 72 h treatment, read-out: IC50, proliferation of MOLM13 cells, FCS 10%.
Setting [6] is: 10% human serum, 72 h treatment, read-out: IC50, proliferation of MOLM13 cells, HS 10%.
The mark [7] stands for this setting: 10% HS, DMSO control, 72 h treatment, read-out: IC50, proliferation of MEC1 cells in HS, DMSO control.
The mark [8] stands for this setting: 10% HS, plus 200 μM OU749, 72 h treatment, read-out: IC50, proliferation of MEC1 cells in HS after addition of OU749.
[9] abbreviates: 10% fetal calf serum, 72 h treatment, read-out: IC50, proliferation of MEC1 cells, FCS 10%.
The mark [10] stands for this setting: 10% human serum, 72 h treatment, read-out: IC50, proliferation of MEC1 cells, HS 10%.
Setting [11] is: Homo sapiens, MOLM-13, 10% HS, DMSO control, 72 h treatment, read-out: IC50, proliferation of MOLM13 cells in HS, DMSO control.
[12] abbreviates: Homo sapiens, MOLM-13, 10% HS, plus 200 μM OU749, 72 h treatment, read-out: IC50, proliferation of MOLM13 cells in HS after addition of OU749.
[13] abbreviates: Homo sapiens, MOLM-13, 10% fetal calf serum, 72 h treatment, read-out: IC50, proliferation of MOLM13 cells, FCS 10%.
Setting [14] is: MOLM-13, 10% human serum, 72 h treatment, read-out: IC50, proliferation of MOLM13 cells, HS 10%.
Where [15] appears, read: Homo sapiens, MEC1, 10% HS, DMSO control, 72 h treatment, read-out: IC50, proliferation of MEC1 cells in HS, DMSO control.
[16] abbreviates: Homo sapiens, MEC1, 10% HS, plus 200 μM OU749, 72 h treatment, read-out: IC50, proliferation of MEC1 cells in HS after addition of OU749.
[17] abbreviates: Homo sapiens, MEC1, 10% fetal calf serum, 72 h treatment, read-out: IC50, proliferation of MEC1 cells, FCS 10%.
Where [18] appears, read: MEC1, 10% human serum, 72 h treatment, read-out: IC50, proliferation of MEC1 cells, HS 10%.

Each structure is given as a SMILES string. Like-named read-outs stand apart in the source and are kept apart here.

As to `O=C1/C(=C/c2ccccc2F)CNC/C1=C\c1ccccc1F` [EF24], the IC50 in the test on MOLM13 cells [1] (setting [3]) is 8.53 ± 0.3 µM; with MOLM13 cells [1] (setting [4]), 0.84 ± 0.68 µM; in the test with MOLM13 cells [1] (setting [5]) it was 0.3 ± 0.03 µM; with MOLM13 cells [1] (setting [6]), 8.53 ± 0.3 µM; with MEC1 cells (setting [7]), 13.8 ± 4.93 µM; in the test on MEC1 cells (setting [8]), 1.06 ± 0.25 µM. In addition, the IC50 in the test on MEC1 cells (setting [9]) amounted to 1.66 ± 0.44 µM; in the test with MEC1 cells (setting [10]) it was 13.8 ± 4.93 µM. Moreover, the “Intracellular ROS, NF-κB inhibitor in combination with γ-GT inhibitor, MOLM13” value (from here on “Intracellular ROS, NF-κB inhibitor”) in the test on MOLM13 cells [2] was “increases the levels of intracellular ROS”.

As for `Cc1oncc1C(=O)Nc1ccc(C(F)(F)F)cc1` [Leflunomide, leflunomide], the IC50 with MOLM13 cells [1] (setting [11]) came to 175 ± 48.7 µM; in the test with MOLM13 cells [1] (setting [12]), 50.2 ± 2 µM; with MOLM13 cells [1] (setting [13]), 14.8 ± 3.55 µM; with MOLM13 cells [1] (setting [14]), 175 ± 48.7 µM; in the test with MEC1 cells (setting [15]), 586 ± 29.8 µM; in the test with MEC1 cells (setting [16]), 176 ± 22.1 µM. Further, the IC50 with MEC1 cells (setting [17]) was found to be 72.5 ± 5.12 µM; with MEC1 cells (setting [18]), 586 ± 29.8 µM. The “Intracellular ROS, NF-κB inhibitor” value in the test with MOLM13 cells [2] is listed as “increases the levels of intracellular ROS”.

Regarding `CNC(=O)c1cc(Oc2ccc(NC(=O)Nc3ccc(Cl)c(C(F)(F)F)c3)cc2)ccn1` [Sorafenib, sorafenib], the IC50 is 0.037 ± 1e-05 µM with MOLM13 cells [1] (setting [11]); 0.003 ± 0.0009 µM in the test with MOLM13 cells [1] (setting [12]); 0.002 µM in the test on MOLM13 cells [1] (setting [13]); 0.037 µM in the test on MOLM13 cells [1] (setting [14]); 34.2 ± 2.9 µM in the test with MEC1 cells (setting [15]); 12.7 ± 1.18 µM in the test with MEC1 cells (setting [16]). Also, the figures for the IC50 in the test on MEC1 cells (setting [17]) and in the test on MEC1 cells (setting [18]) were 3.03 µM and 34.2 µM, respectively. In addition, the “Intracellular ROS, NF-κB inhibitor” value in the test with MOLM13 cells [2] is “increases the levels of intracellular ROS”.

In the case of `Cc1ccc(S(=O)(=O)/C=C/C#N)cc1` [Bay 11-7082], the IC50 with MOLM13 cells [1] (setting [3]) stood at 12.6 ± 3.51 µM; in the test with MOLM13 cells [1] (setting [4]), 5.68 ± 0.08 µM; in the test on MOLM13 cells [1] (setting [5]) it was 2.04 ± 0.2 µM; in the test with MOLM13 cells [1] (setting [6]), 12.6 ± 3.51 µM; in the test with MEC1 cells (setting [7]) it was 9.15 ± 1.73 µM; in the test with MEC1 cells (setting [8]), 4.64 ± 0.41 µM. Besides, the IC50 in the test on MEC1 cells (setting [9]) was 1.85 ± 0.04 µM; in the test with MEC1 cells (setting [10]), 9.15 ± 1.73 µM. In the test on MOLM13 cells [2], the “Intracellular ROS, NF-κB inhibitor” value is listed as “increases the levels of intracellular ROS”.

(Values after patent US20200368211A1, “INHIBITION OF GAMMA-GLUTAMYLTRANSFERASE AND GLUTATHIONE CATABOLISM TO ENHANCE THE EFFICACY OF NF-KB SIGNALLING PATHWAY INHIBITORS” (UNIVERSITAET HEIDELBERG, priority 2017, published 2020).)
